Results from US9302999B2, “Substituted triazoles as herbicides” (E. I. DU PONT DE NEMOURS AND COMPANY, priority 2012, dated 2016).

How the values were obtained:
Format in all cases: in vivo
[1] = test system: morningglory (Ipomoea spp.); assay: Test A pre-/postemergence: morningglory
Method in brief: (§1)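 Rating scale 0–100 (100 = complete control), visual, ~10 days after application in the greenhouse. Applications: preemergence directed soil spray; postemergence at 1–2 leaves.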

[2] = test system: pigweed (Amaranthus retroflexus); assay: Test A pre-/postemergence: pigweed
Method in brief: as §1

[3] = test system: chickweed (common chickweed, Stellaria media); assay: Test C postemergence: chickweed
Method in brief: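 Visual ratings of 0 (no effect) to 100 (complete control) were made against controls 13-15 days after a postemergence spray, with plants kept in a greenhouse. Plants were 2-18 cm tall (1- to 4-leaf stage) in Redi-Earth peat/vermiculite medium at treatment.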

[4] = test system: kochia (Kochia scoparia); assay: Test C pre-/postemergence: kochia; details: Postemergence
Method in brief: (§2)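 Visual injury scored 0–100 (100 = complete control) against untreated controls after 13–15 greenhouse days. Surfactant-containing solvent formulations applied either to soil after sowing (loam/sand) or over 1- to 4-leaf plants, 2–18 cm tall.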

[5] = test system: velvetleaf (Abutilon theophrasti); assay: Test A pre-/postemergence: velvetleaf
Method in brief: as §1

[6] = test system: pigweed (Amaranthus retroflexus); assay: Test C pre-/postemergence: pigweed
Method in brief: as §2

[7] = test system: corn (Zea mays); assay: Test A pre-/postemergence: corn
Method in brief: as §1

[8] = test system: wheat (Triticum aestivum); assay: Test A pre-/postemergence: wheat
Method in brief: as §1

[9] = test system: ryegrass, Italian (Italian ryegrass, Lolium multiflorum); assay: Test C pre-/postemergence: ryegrass, Italian
Method in brief: as §2

[10] = test system: foxtail, giant (giant foxtail, Setaria faberii); assay: Test C pre-/postemergence: foxtail, giant
Method in brief: as §2

[11] = test system: lambsquarters (Chenopodium album); assay: Test C pre-/postemergence: lambsquarters
Method in brief: as §2

[12] = test system: morningglory (Ipomoea coccinea); assay: Test C pre-/postemergence: morningglory
Method in brief: as §2

[13] = Postemergence, 125 g ai/ha, 0 to 100 scale, 0 is no effect, 100 is complete control
[14] = Postemergence, 500 g ai/ha, 0 to 100 scale, 0 is no effect, 100 is complete control
[15] = Preemergence, 125 g ai/ha, 0 to 100 scale where 0 is no effect and 100 is complete control
[16] = Preemergence, 500 g ai/ha, 0 to 100 scale (0 no effect, 100 complete control)
[17] = 31 g ai/ha, scale 0 to 100 (0 no effect, 100 complete control)
[18] = 62 g ai/ha, scale 0 to 100 (0 no effect, 100 complete control)
[19] = 125 g ai/ha, scale 0 to 100, 0 no effect, 100 complete control
[20] = Postemergence, 31 g ai/ha, scale 0 to 100 (0 no effect, 100 complete control)
[21] = Postemergence, 62 g ai/ha, scale 0 to 100 (0 no effect, 100 complete control)
[22] = Postemergence, 125 g ai/ha, scale 0 to 100, 0 no effect, 100 complete control
[23] = Postemergence, 250 g ai/ha, scale 0 to 100 (0 no effect, 100 complete control)
[24] = Preemergence, 31 g ai/ha, scale 0 (no effect) to 100 (complete control)
[25] = Preemergence, 62 g ai/ha, scale of 0 to 100, 0 is no effect, 100 is complete control
[26] = Preemergence, 125 g ai/ha, scale 0 to 100, 0 no effect, 100 complete control
[27] = Preemergence, 250 g ai/ha, scale 0 to 100, 0 no effect, 100 complete control

CCCc1nn(-c2ccc(C(F)(F)F)c(F)c2)nc1Oc1ccnc(C(F)(F)F)c1 [Compound 185]
Plant response rating, Morningglory [1, 13]: 100
Morningglory plant response rating [1, 14]: 100
Plant response rating, Morningglory [1, 15]: 60
Plant response rating, Morningglory [1, 16]: 100
Plant response rating, Pigweed [2, 13]: 100
Pigweed plant response rating [2, 14]: 100
Plant response rating, Pigweed [2, 15]: 100
Plant response rating, Pigweed [2, 16]: 100
Plant response rating, Chickweed [3, 17]: 70
Plant response rating, Chickweed [3, 18]: 85
Plant response rating, Chickweed [3, 19]: 95
Plant response rating, Chickweed ([3]; 250 g ai/ha, scale 0 to 100): 95
Plant response rating, Kochia [4, 17]: 90
Plant response rating, Kochia [4, 18]: 90
Plant response rating, Kochia [4, 19]: 90
Plant response rating, Kochia ([4]; 250 g ai/ha, scale 0 to 100 (0 no effect, 100 complete control)): 90
Plant response rating, Velvetleaf [5, 13]: 100
Velvetleaf plant response rating [5, 14]: 100
Plant response rating, Velvetleaf [5, 15]: 90
Plant response rating, Velvetleaf [5, 16]: 100
Plant response rating, Pigweed [6, 20]: 98
Plant response rating, Pigweed [6, 21]: 98
Plant response rating, Pigweed [6, 22]: 100
Plant response rating, Pigweed [6, 23]: 100
Plant response rating, Pigweed [6, 24]: 100
Plant response rating, Pigweed [6, 25]: 100
Plant response rating, Pigweed [6, 26]: 100
Plant response rating, Pigweed [6, 27]: 100
Plant response rating, Corn [7, 13]: 20
Corn plant response rating [7, 14]: 50
Plant response rating, Corn [7, 15]: 10
Plant response rating, Corn [7, 16]: 30
Plant response rating, Wheat [8, 13]: 20
Wheat plant response rating [8, 14]: 40
Plant response rating, Wheat [8, 15]: 30
Plant response rating, Wheat [8, 16]: 50
Plant response rating, Ryegrass, Italian [9, 20]: 10
Plant response rating, Ryegrass, Italian [9, 21]: 10
Plant response rating, Ryegrass, Italian [9, 22]: 25
Plant response rating, Ryegrass, Italian [9, 23]: 35
Plant response rating, Ryegrass, Italian [9, 24]: 90
Plant response rating, Ryegrass, Italian [9, 25]: 100
Plant response rating, Ryegrass, Italian [9, 26]: 100
Plant response rating, Ryegrass, Italian [9, 27]: 100
Plant response rating, Foxtail, Giant [10, 20]: 40
Plant response rating, Foxtail, Giant [10, 21]: 80
Plant response rating, Foxtail, Giant [10, 22]: 90
Plant response rating, Foxtail, Giant ([10]; Postemergence, 250 g ai/ha, scale 0 to 100): 98
Plant response rating, Foxtail, Giant [10, 24]: 100
Plant response rating, Foxtail, Giant [10, 25]: 100
Plant response rating, Foxtail, Giant [10, 26]: 100
Plant response rating, Foxtail, Giant [10, 27]: 100
Plant response rating, Lambsquarters [11, 20]: 80
Plant response rating, Lambsquarters [11, 21]: 80
Plant response rating, Lambsquarters [11, 22]: 85
Plant response rating, Lambsquarters [11, 23]: 95
Plant response rating, Lambsquarters [11, 24]: 100
Plant response rating, Lambsquarters [11, 25]: 100
Plant response rating, Lambsquarters [11, 26]: 100
Plant response rating, Lambsquarters [11, 27]: 100
Plant response rating, Morningglory [12, 20]: 90
Plant response rating, Morningglory [12, 21]: 98
Plant response rating, Morningglory [12, 22]: 100
Plant response rating, Morningglory [12, 23]: 100
Plant response rating, Morningglory [12, 24]: 45
Plant response rating, Morningglory [12, 25]: 55
Plant response rating, Morningglory [12, 26]: 70
Plant response rating, Morningglory [12, 27]: 100
